In PubChem BioAssay (NCI):
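Tested at 5 concentrations; 48 h exposure; 96-well plates; endpoints linearly interpolated, else capped at highest concentration. The concentration for full growth arrest is given as TGI.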

Tests used:
Assay in all cases: growth of human tumour cells (NCI), 48 h
BT-549 breast = system: BT-549 breast
DU-145 prostate = system: DU-145 prostate
HCT-116 colon = system: HCT-116 colon
HOP-92 NSCLC = system: HOP-92 NSCLC
HS 578T breast = system: HS 578T breast
K-562 leukemia = system: K-562 leukemia
KM12 colon = system: KM12 colon
NCI-H460 lung = system: NCI-H460 lung
SF-295 CNS = system: SF-295 CNS
SK-OV-3 ovarian = system: SK-OV-3 ovarian
TK-10 renal = system: TK-10 renal
UO-31 renal = system: UO-31 renal

SMILES	TGI (BT-549 breast) [µM]	TGI (DU-145 prostate) [µM]	TGI (HCT-116 colon) [µM]	TGI (HOP-92 NSCLC) [µM]	TGI (HS 578T breast) [µM]	TGI (K-562 leukemia) [µM]	TGI (KM12 colon) [µM]	TGI (NCI-H460 lung) [µM]	TGI (SF-295 CNS) [µM]	TGI (SK-OV-3 ovarian) [µM]	TGI (TK-10 renal) [µM]	TGI (UO-31 renal) [µM]
CCCCCCCCCCCCCCCCCCN(C)CC(COP(=O)([O-])OCC[N+](C)(C)C)OC (stereo not drawn)	> 100	> 100	43.3	35.6	> 85.8	54.6	7.71	12.2	23.9	27.4	8.46	48.8
O=[N+]([O-])c1cc(-c2nc(-c3ccccc3)c(-c3ccccc3)[nH]2)c(O)c([N+](=O)[O-])c1	59.8	55.4	33.4	36.9	> 100	> 100	65.1	48.3	54.2	40.6	65.8	33.4
COc1ccc(C(=O)/C=C/c2cc(O)c(O)c(F)c2F)c(OC)c1	70.5	> 100	27.2	> 100	> 100	> 100	33.5	22.8	> 100	98.1	88	> 100
O=[N+]([O-])c1ccc(N/N=C/c2ccc(OCCCCCCCCCCCO)cc2)c([N+](=O)[O-])c1	15.5	> 95.9	> 43.7	14.6	6.5	2.97	7.84	12.1	9.6	11.6	33.7	36.1
O=C(O)CN1C(=O)C(Cc2ccc(O)cc2)N=C(c2cccc(O)c2)c2ccccc21 (stereo not drawn)	> 100	> 100	> 100	> 100	> 100	> 100	> 100	> 100	> 100	> 100	> 100	> 100
N#Cc1c(N)nc(Sc2ccccc2N)c(C#N)c1-c1ccc(Cl)cc1	33.2	> 58.2	> 72.6	53.1	32	> 42	35.9	58.6	25.9	40.6	> 48.5	9.64
O=C1CSC(c2cccc([N+](=O)[O-])c2)N1c1ccc(-n2c(-c3ccccc3)nc3ccccc3c2=O)cc1 (stereo not drawn)	> 100	> 100	> 100	> 100	> 100	> 100	> 100	> 100	> 100	> 100	> 100	65.6
CC(C)(C)OC(=O)N1C(c2cccnc2)=CC[C@H]2C3CC=C(c4cccnc4)[C@@]3(C)CC[C@@H]21 (stereo partly drawn)	16.3	19.2	17.5	8.34	24.7	38.6	28.8	14.1	11.1	15	19.7	17.3
O=C1Oc2cc(O)cc(/C=C/c3ccc(O)cc3)c2[C@@]12c1c(O)cc(O)cc1OC2c1cccc(O)c1 (stereo partly drawn)	> 100	> 100	> 100	> 100	56.6	> 100	> 100	59.6	88.1	93.5	> 100	> 100
